Tests used:
[1] = tested on: cell free culture supernatant (fraction A) of Serratia marcescens, cyclic nucleotide phosphodiesterase activity; assay: Activity assay, fraction A: cell free culture supernatant, HPLC detection of substrate and products; type: biochemical, Serratia marcescens strain DSM 30121; settings: 40 μl of 100 mM substrate in 400 μl, overnight at 30° C.
Method: (§1) The substrates used for enzyme activity assays are dissolved in phosphate buffer pH 7.0 to the required concentration.
One single colony is subsequently used to inoculate 25 ml of LB Broth contained in a 100-ml shake-flask. This culture is then incubated at 30° C. and shaken at 200 rpm (Infors HT Shaker, Infors AG, Bottmingen, Switzerland) for another 48 hrs.
(§2) After incubation, the whole volume of the culture is centrifuged at 9000 rpm for 20 minutes at ca. 4° C. (DuPont Instruments Sorvall® RC-5B Refrigerated Superspeed Centrifuge, Digitana AG, Horgen, Switzerland; rotor SS-34).
The supernatant (fraction A) is recuperated and 360 μl are placed in an Eppendorf tube. Fourty μl of a 100 mM solution of substrate are then added to the reaction mixture and incubated overnight at 30° C.
After 5 minutes of extraction at room temperature, the tubes are centrifugated at 14 000 rpm for 5 minutes (Bench Centrifuge Biofuge 15) and the supernatant transfered to HPLC tubes for analysis.
Blanks are made with the substrate solution being replaced by an equivalent volume of phosphate buffer pH 7.0.
The activity is qualitatively determined by observing the appearance of the substrate and product(s) of the activity assay as peaks on a HPLC profile. […] A peak showing on the assay's chromatogramme at the same or at a very close retention time as that of a standard, and moreover absent from the blank, is considered to be the same compound as the standard with a minimum risk of error.
The solvent system is composed of 10 mm phosphate buffer, pH 4.0 (solvent A) and Methanol (solvent B) and two different gradients are applied depending on whether natural or modified nucleotides are used for the assay:
The HPLC profiles obtained for the activity assays are compared with profiles of standards in order to identify the peaks.

[2] = tested on: Intact cells (fraction B) of Serratia marcescens; assay: Activity assay, fraction B: whole-cell suspension, HPLC detection of substrate and products; type: cell-based, Serratia marcescens strain DSM 30121; settings: 10 mM substrate solution, overnight at 30° C.
Method: as §1
Serratia marcescens strain DSM 30121 is grown for 48 hrs in Petri dishes containing Luria-Bertani [LB] Agar (1% Tryptone [Merck 07213]; 0.5% Yeast Extract [Fluka 70161]; 86 mM NaCl [Fluka 71382]; 50 mM Tris-HCl, pH 7.5 [Merck 8382]; 1.5% Bacto-Agar [Difco 0140-01]) at 30° C. (Memmert Incubator, Haska AG, Bern, Switzerland). One single colony is subsequently used to inoculate 25 ml of LB Broth contained in a 100-ml shake-flask. This culture is then incubated at 30° C. and shaken at 200 rpm (Infors HT Shaker, Infors AG, Bottmingen, Switzerland) for another 48 hrs.
as §2
The pellet is resuspended in 1 ml of distilled water and 40 μl of this whole-cell suspension (fraction B) are placed in an Eppendorf tube to which 360 μl of a 10 mM solution of the substrate are added. The incubation conditions are the same as for the supernatant fraction. […]
The activity is qualitatively determined by observing the appearance of the substrate and product(s) of the activity assay as peaks on a HPLC profile. […]

Compound	hydrolysis / degradation of substrate [1]	degradation of added substrate [2]
O=c1[nH]cnc2c1ncn2[C@@H]1O[C@@H]2COP(=O)(O)O[C@H]2[C@H]1O [cIMP]	85-89%	
COCCO[C@@H]1[C@@H]2OP(=O)(O)OC[C@H]2O[C@H]1n1cnc2c(N)ncnc21 [2′MOE CAMP, 2′-O(2-Methoxyethyl)-adenosine 3′,5′-cyclic-phosphate]	about 50%	about 85%
Nc1ccn([C@@H]2O[C@@H]3COP(=O)(O)O[C@H]3[C@H]2O)c(=O)n1 [cCMP]	ca. 10%	

Source: US6340754B1, “Phosphorus containing cyclic nucleotides” (priority 1998, dated 2002)
